Tested on: HIV-1 gene expression in HeLa rtTA HIV∆Mls cells
Assay: HIV-1 gene expression / virion production by p24 antigen ELISA, Dox-inducible provirus
Type: cell-based
Details: for reduction of HIV-1 viral production relative to DMSO (+Dox): 791 30 µM, 833 2 µM, 892 15 µM, 24 h (Fig. 1); for IC50: Human immunodeficiency virus 1, HeLa
Description: Effects of compound treatment on HIV-1 gene expression were initially assessed in the context of HeLa rtTA HIV∆Mls cells stably transduced with an inducible Tet-On HIV-1 system (as previously described). The provirus was modified by either deletion in the reverse transcriptase and integrase region of the pol gene by an MlsI restriction digest (HeLa rtTA HIV∆Mls cell line) or GFP fusion to Gag, deleting the PR and RT-coding regions (HeLa rtTA HIVGagGFP cell line). […] All cell lines were maintained in Iscove’s modified Delbecco’s medium (IMDM; Wisent) supplemented with 10% (vol/vol) fetal bovine serum (FBS, Wisent), 1% penicillin/streptomycin (P/S, Wisent) and 0.2% Amphotericin B (Wisent). Indicator cell line CEM-GXR was obtained from Dr. Mark Brockman (Simon Fraser University). The RTI-resistant virus (E00443) was obtained from Dr. Zabrina Brumme (Simon Fraser University). The HIV-1 clade A (97USSN54 (N54)), HIV-1 clade B (IIIB), integrase inhibitor resistant virus (11845), protease inhibitor resistant virus (2948) were obtained through the NIH AIDS Research and Reference reagent program, Division of AIDS, NIAID, NIH).
The compounds used in the treatment assay were obtained from ChemBridge. All compounds were solubilized to 10 mM or 1 mM stock concentrations in dimethyl sulfoxide (DMSO) and stored at −20 °C for subsequent experiments. Cells were incubated for 3–5 h in the presence of the compounds prior to induction with doxycycline (Dox) at a final concentration of 2 μg/mL. 24 h post compound treatment, culture medium was harvested, adjusted to 1% Triton X-100, and incubated at 37 °C for 1 h for p24 antigen ELISA. Cells were harvested in 2 mM EDTA, 1xPBS. RNA was isolated using Aurum Total RNA extraction kits (Bio-Rad), while total protein was extracted with RIPA buffer (1% NP-40, 0.1% SDS, 0.5% sodium deoxycholate, 150 mM NaCl, 50 mM Tris–HCl).
ELISA for p24 Gag antigen was performed on cell supernatants using kits purchased from Frederick National Laboratory for Cancer Research (Leidos) or XpressBio extended range kit and performed according to manufacturer’s instructions. Protein concentration in cell lysates was quantified by Bradford assay and equal amounts of protein run on 7, 10, 12, or 14% SDS-PAGE, depending on the protein of interest. Following transfer to PVDF (BioRad or Perkin-Elmer), blots were blocked in either 5% Milk-PBS-T (5% Milk, 0.05% Tween-20, 1× PBS) or 3% BSA-PBS-T (3% BSA, 0.05% Tween-20, 1× PBS) prior to incubating with primary antibody (all diluted in 3% BSA-PBS-T). Primary antibodies used were: purified mouse anti-p24 supernatant from anti-HIV-1 Gag hybridoma 183, mouse anti-gp120 hybridoma 902 (NIH AIDS Reagent Program), mouse monoclonal antibody to HIV-1 Rev (Abcam), rabbit polyclonal antibody to HIV-1 Tat (Abcam), mouse monoclonal antibody to p53 (Santa Cruz), rabbit purified IgG for Nap1 (provided by L. Frappier), rabbit polyclonal antibody to GAPDH (Sigma-Aldrich), or mouse monoclonal antibody to α-Tubulin (Sigma-Aldrich). Following incubation with appropriate secondary antibody, blots were visualized by ECL, ECL Plus (Perkin-Elmer), or Clarity Western ECL substrate (BioRad). Quantification of the relative intensity of the detected bands was done using ImageLab software and normalized to corresponding bands of the loading control (GAPDH or α-Tubulin).

SMILES | reduction of HIV-1 viral production relative to DMSO (+Dox) | IC50 [nM] | reduction in Gag expression (1.5 µM) [%]
Cc1cc(NCc2cccnc2)n2ncc(-c3ccc(Cl)cc3)c2n1 [Compound 791, 3-(4-chlorophenyl)-5-methyl-N-(3-pyridinylmethyl)pyrazolo[1,5-a]pyrimidin-7-amine] | 80–90% | 8200 | 
O=C(NC(=S)NNC(=O)c1ccccc1O)c1ccc(-c2ccccc2)cc1 [Compound 833, N-([2-(2-hydroxybenzoyl)hydrazino]carbonothioyl}-4-biphenylcarboxamide] | 80–90% | 600 | 90
COc1ccc(C=NNC(=O)c2ccccc2O)cc1O [Compound 892, 2-hydroxy-N′-(3-hydroxy-4-methoxybenzylidene)benzohydrazide] | 80–90% | 1800 | 
